Reference: ChEMBL document CHEMBL5352426, “Synthesis and anti-tumor activity of nitrogen-containing derivatives of the natural product diphyllin” (Eur J Med Chem, 2022)
Calls of active or inactive are those of the source. The rule behind the calls is not given here.

Key:
[1] = tested on: CFPAC-1; assay: Antiproliferative activity against human CFPAC-1 cells assessed as inhibition of cell proliferation at 1 uM incubated for 72 hrs by SRB assay relative to control; assay type: functional
[2] = tested on: Panc02; assay: Antiproliferative activity against mouse Panc02 cells assessed as inhibition of cell proliferation at 1 uM incubated for 72 hrs by SRB assay relative to control; assay type: functional
[3] = tested on: PaTu 8988t; assay: Antiproliferative activity against human PaTu 8988t cells assessed as inhibition of cell proliferation at 1 uM incubated for 72 hrs by SRB assay relative to control; assay type: functional
[4] = Antiproliferative activity against human L02 cells assessed as inhibition of cell proliferation at 1 uM incubated for 72 hrs by SRB assay relative to control; assay type: toxicity, cell-based
[5] = tested on: MIA PaCa-2; assay: Antiproliferative activity against human MIA PaCa-2 cells assessed as inhibition of cell proliferation at 1 uM incubated for 72 hrs by SRB assay relative to control; assay type: functional
[6] = tested on: Panc02; assay: Antiproliferative activity against mouse Panc02 cells assessed as inhibition of cell proliferation incubated for 72 hrs by SRB assay; assay type: functional, cell-based; conditions: Panc02, 72 h
[7] = tested on: PaTu 8988t; assay: Antiproliferative activity against human PaTu 8988t cells assessed as inhibition of cell proliferation incubated for 72 hrs by SRB assay; assay type: functional, cell-based
[8] = Antiproliferative activity against human L02 cells assessed as inhibition of cell proliferation incubated for 72 hrs by SRB assay; assay type: toxicity, cell-based
[9] = tested on: MIA PaCa-2; assay: Antiproliferative activity against human MIA PaCa-2 cells assessed as inhibition of cell proliferation incubated for 72 hrs by SRB assay; assay type: functional, cell-based; conditions: MIA PaCa-2, 72 h
[10] = tested on: CFPAC-1; assay: Antiproliferative activity against human CFPAC-1 cells assessed as inhibition of cell proliferation incubated for 72 hrs by SRB assay; assay type: functional, cell-based; conditions: CFPAC-1, 72 h
[11] = tested on: CFPAC-1; assay: Downregulation of CDK4 expression level in human CFPAC-1 cells incubated for 24 hrs by Western blot analysis; assay type: functional, cell-based; conditions: dose 10-1000 nM
[12] = tested on: CFPAC-1; assay: Inhibition of autophagy at later stage in human CFPAC-1 cells assessed as increase in LC3-II/LC3-I ratio at 1 uM incubated for 24 hrs in presence of chloroquine by Western blot analysis; assay type: functional, cell-based
[13] = tested on: CFPAC-1; assay: Downregulation of cyclin D1 expression level in human CFPAC-1 cells incubated for 24 hrs by Western blot analysis; assay type: functional, cell-based; conditions: dose 10-1000 nM
[14] = tested on: CFPAC-1; assay: Inhibition of autophagy at later stage in human CFPAC-1 cells assessed as increase in LC3-II/LC3-I ratio at 10 to 1000 nM incubated for 24 hrs by Western blot analysis; assay type: functional, cell-based; conditions: dose 10-1000 nM
[15] = tested on: CFPAC-1; assay: Effect on beclin-1 level in human CFPAC-1 cells at 10 to 1000 nM incubated for 24 hrs by Western blot analysis; assay type: functional, cell-based; conditions: dose 10-1000 nM

SMILES	inhibition at 1 µM [1]	inhibition at 1 µM [2]	inhibition at 1 µM [3]	inhibition at 72 h, 1 µM [4]	inhibition at 1 µM [5]	IC50 [6]	IC50 [7]	IC50 at 72 h [8]	IC50 [9]	IC50 [10]	Activity [11]	inhibition [12]	Activity [13]	inhibition [14]	Activity [15]
COc1cc2c(OCc3cn([C@H]4O[C@@H](C)[C@H](O)[C@@H](O)[C@H]4O)nn3)c3c(c(-c4ccc5c(c4)OCO5)c2cc1OC)C(=O)OC3	14.9%	8.85%	-2.09%	-1.75%	0.95%										
COc1cc2c(OCCOCc3cn([C@H]4O[C@@H](C)[C@H](OC(C)=O)[C@@H](OC(C)=O)[C@H]4OC(C)=O)nn3)c3c(c(-c4ccc5c(c4)OCO5)c2cc1OC)C(=O)OC3	66.7%	53.4%	86.5%	16.4%	72.4%	216 nM	766 nM	1040 nM	756 nM	50 nM					
COC(=O)CNc1c2c(c(-c3ccc4c(c3)OCO4)c3cc(OC)c(OC)cc13)C(=O)OC2	48.4%	42%	85.2%	10.8%	10.2%										
COc1cc2c(N)c3c(c(-c4ccc5c(c4)OCO5)c2cc1OC)C(=O)OC3											Dose-Dependent Effect	Active	Dose-Dependent Effect	Active	inactive
COc1cc2c(OCCOCc3cn([C@H]4O[C@@H](C)[C@H](O)[C@@H](O)[C@H]4O)nn3)c3c(c(-c4ccc5c(c4)OCO5)c2cc1OC)C(=O)OC3	53.9%	46%	0.9%	1.57%	0.16%										
COc1cc2c(OCc3cn([C@H]4O[C@@H](C)[C@H](OC(C)=O)[C@@H](OC(C)=O)[C@H]4OC(C)=O)nn3)c3c(c(-c4ccc5c(c4)OCO5)c2cc1OC)C(=O)OC3	65.9%	76.3%	72.5%	21.6%	83.7%	270 nM	163 nM	1230 nM	248 nM	97 nM					
CNc1c2c(c(-c3ccc4c(c3)OCO4)c3cc(OC)c(OC)cc13)C(=O)OC2	82.1%	91.4%	92%	35.5%	92.3%										
